The source of these data is ChEMBL document CHEMBL1201862, “PubChem BioAssay data set” (2004).

Among the test systems are COLO 205; LOX IMVI; CCRF-CEM; UO-31; SK-OV-3; MOLT-4; OVCAR-3; HOP-92; OVCAR-8; ACHN; HL-60; K562; NCI-H226; RXF 393; MDA-MB-231; HCT-116; NCI-H23; SNB-75; SR.
Holding throughout (test): NCI-60 cell line screen, 48 h

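Five compound concentrations were applied to cells in 96-well plates for 48 hours; endpoints were derived by simple linear interpolation of the resulting dose-response curve. Here, GI50 denotes the concentration required for 50% inhibition of growth.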 The source made the active and inactive calls. Cut-off read from the data, not from the text of the source: active = GI50 up to about 1.1 µM and inactive = higher. Bounds are passed on as bounds.

For the compound `CC[N+](CC)(CCNCC(N)=O)CC(N)=O`, the GI50 with COLO 205, with LOX IMVI, in the assay with CCRF-CEM, in the assay on UO-31, in the assay on SK-OV-3 and in the assay with MOLT-4 was > 10 µM (inactive) throughout. The GI50 with OVCAR-3, in the assay on HOP-92, in the assay on OVCAR-8, in the assay on ACHN, in the assay with HL-60 and in the assay on K562 was > 10 µM (inactive) throughout. In addition, the GI50 in the assay with NCI-H226, in the assay with RXF 393, with MDA-MB-231, in the assay on HCT-116, with NCI-H23 and in the assay on SNB-75 was > 10 µM (inactive) in each case.

As for `O=C1c2ccccc2C(=O)C1(Cl)C1(S(=O)(=O)O)c2ccccc2-c2ccccc21`, the GI50 in the assay on COLO 205, with LOX IMVI, in the assay on CCRF-CEM, in the assay with UO-31, in the assay with SK-OV-3 and with MOLT-4 was > 100 µM (inactive) throughout. For the same compound, the GI50 in the assay with OVCAR-3, with HOP-92, with OVCAR-8, in the assay with ACHN, in the assay with HL-60 and in the assay with K562 was > 100 µM (inactive) each time. Moreover, the GI50 in the assay on NCI-H226, in the assay on RXF 393, in the assay with HCT-116, in the assay on SR, with NCI-H23 and in the assay on SNB-75 was > 100 µM (inactive) each time.

On to `CSC1=N/C(=C\c2ccc(Cl)cc2)C(=O)N1CN1CCOCC1`, for which the GI50 was 28.9 µM (inactive) with COLO 205; 26.4 µM (inactive) with LOX IMVI; 30.8 µM (inactive) in the assay with CCRF-CEM; 23 µM (inactive) in the assay with UO-31; 30.6 µM (inactive) in the assay with SK-OV-3; 40 µM (inactive) with MOLT-4. Further, the GI50 in the assay with OVCAR-3 is 41.7 µM (inactive); in the assay with HOP-92 it was 0.308 µM (active); with OVCAR-8, 21.7 µM (inactive); in the assay with ACHN, 31.3 µM (inactive); in the assay with K562 it was 33 µM (inactive); in the assay on NCI-H226, 46.8 µM (inactive). For the same compound, the GI50 was 43 µM (inactive) with MDA-MB-231; 27.5 µM (inactive) in the assay on HCT-116; 0.0791 µM (active) in the assay with SR; 66.8 µM (inactive) with NCI-H23; 55.2 µM (inactive) in the assay on SNB-75.

For the compound `O=C(/C=C(\O)C(=O)O)/C=C(\O)c1ccc(Cl)cc1`, the GI50 in the assay on COLO 205, in the assay with LOX IMVI, in the assay on CCRF-CEM, in the assay on UO-31, with SK-OV-3 and in the assay with MOLT-4 was > 100 µM (inactive) each time. Besides, the GI50 in the assay with OVCAR-3, with HOP-92, in the assay on OVCAR-8, with ACHN, in the assay with HL-60 and with K562 was > 100 µM (inactive) in each case. The GI50 in the assay with NCI-H226, in the assay on RXF 393, in the assay with HCT-116, in the assay on SR, in the assay on NCI-H23 and with SNB-75 was > 100 µM (inactive) in each case.

On to `COc1ccc(N2CC(=O)N(C(=O)COc3ccc(OCC(=O)N4C(=O)CN(c5ccc(OC)cc5)C4=S)cc3)C2=S)cc1`, for which the GI50 with COLO 205 was > 100 µM (inactive); in the assay on UO-31, > 100 µM (inactive); with SK-OV-3 it was > 100 µM (inactive); with MOLT-4, 30 µM (inactive); in the assay with HOP-92, > 100 µM (inactive); in the assay on ACHN it was > 100 µM (inactive). The GI50 in the assay with K562 was 38.8 µM (inactive); in the assay on NCI-H226, > 100 µM (inactive); in the assay on RXF 393, > 100 µM (inactive); in the assay with MDA-MB-231, > 100 µM (inactive); in the assay with HCT-116 it was 24 µM (inactive); in the assay with NCI-H23, 88.1 µM (inactive). The GI50 in the assay with SNB-75 was > 100 µM (inactive).

As for `COC(=O)C(=O)C(C(=O)C=C(C)C)C(=O)C(=O)Nc1cc(C(F)(F)F)ccc1Cl` (stereo unspecified), the GI50 in the assay with COLO 205 is 52.2 µM (inactive); in the assay on LOX IMVI, 46.9 µM (inactive); with CCRF-CEM, 21.3 µM (inactive); in the assay on UO-31, > 100 µM (inactive); in the assay on SK-OV-3, > 100 µM (inactive); with MOLT-4, > 100 µM (inactive). For the same compound, the GI50 with OVCAR-3 is > 100 µM (inactive); with HOP-92 it was > 100 µM (inactive); with OVCAR-8 it was > 100 µM (inactive); with ACHN it was > 100 µM (inactive); in the assay on HL-60 it was > 100 µM (inactive); with K562 it was 42.9 µM (inactive). Besides, the GI50 in the assay on NCI-H226 is > 100 µM (inactive); in the assay on RXF 393, > 100 µM (inactive); in the assay on HCT-116 it was > 100 µM (inactive); in the assay with SR, 17.7 µM (inactive); in the assay on NCI-H23 it was > 100 µM (inactive); with SNB-75 it was > 100 µM (inactive).

In the case of `O=C1/C(=C/c2ccccc2)CCCc2ccccc21`, the GI50 in the assay on COLO 205 is 18.6 µM (inactive); in the assay on LOX IMVI, 18.4 µM (inactive); in the assay with CCRF-CEM it was 15.7 µM (inactive); in the assay on UO-31, 17.6 µM (inactive); in the assay on SK-OV-3 it was 38.2 µM (inactive); with MOLT-4 it was 18.5 µM (inactive). Also, the GI50 with OVCAR-3 is 18.4 µM (inactive); in the assay with HOP-92, 15.3 µM (inactive); with OVCAR-8, 20.4 µM (inactive); with ACHN, 20.8 µM (inactive); in the assay with HL-60, 15.2 µM (inactive); in the assay with K562, 19.2 µM (inactive). Besides, the GI50 with NCI-H226 is 18.4 µM (inactive); in the assay on MDA-MB-231, 20.1 µM (inactive); in the assay with HCT-116, 16.8 µM (inactive); in the assay with SR it was 14.4 µM (inactive); in the assay on NCI-H23, 17.5 µM (inactive); in the assay with SNB-75, 35.3 µM (inactive).

Turning to `CC[C@H](CC[C@@H](C)[C@H]1CC[C@H]2[C@@H]3CC=C4C[C@@H](O)CC[C@]4(C)[C@H]3CC[C@]12C)C(C)C` [BETA-SITOSTEROL], the GI50 in the assay on COLO 205, in the assay with LOX IMVI, in the assay on CCRF-CEM, in the assay with UO-31, with MOLT-4 and in the assay with OVCAR-3 was > 100 µM (inactive) throughout. Besides, the GI50 was > 100 µM (inactive) in the assay with HOP-92; > 100 µM (inactive) in the assay with OVCAR-8; > 100 µM (inactive) in the assay with ACHN; > 10 µM (inactive) in the assay with HL-60; > 100 µM (inactive) with K562; > 100 µM (inactive) with NCI-H226. The GI50 with MDA-MB-231, with HCT-116, in the assay on NCI-H23 and with SNB-75 was > 100 µM (inactive) throughout.
